# Like-named read-outs stand apart in the source and are kept apart here.
# Experiments:
# [1] = tested on: RPE proliferation; conditions: biphasic, read-out: IC50, prevention of RPE proliferation in-vitro (biphasic), cited from earlier work
# [2] = tested on: traction retinal detachment (PVR); conditions: cited from earlier work
# [3] = cited from earlier work
# [4] = tested on: PVR induced by human RPE cells; assay: PVR model with retinoid implants, Fastenberg scale; type: in vivo; conditions: at 28 days; 10% loaded PLA/PLGA implants, intravitreal
# Excerpt: PLA and PLGA implants 1.5 mm in diameter and 3 mm in length were fabricated by extrusion of the polymer drug blend. Tazarotenic acid (the free acid of Tazarotene) Tazarotene and 13-cis-retinoic acid were loaded into the implants at 10% concentrations. Briefly, pigmented rabbits were vitrectomized followed by intravitreal injection of 500,000 human RPE cells. After injection of the RPE cells the retinoid implants were placed into the vitreous and anchored to the sclera with the suture used to close the sclerotomy.
# The eyes were examined weekly for 4 weeks. Severity of PVR was graded based on the Fastenberg scale. At 4 weeks gross pathology and limited histopathology were conducted.
# [5] = tested on: PVR; conditions: orally administered, retrospective study; cited from earlier work
# [6] = tested on: photoreceptors; assay: Rhodopsin mutant transgenic rat models of retinal degeneration; type: in vivo, Transgenic S334ter rats; conditions: i.p., S334ter line 3 and line 4
# Description: The objective of this study was to determine the efficacy of various retinoids in preventing retinal damage or improving retinal survival in rhodopsin mutant transgenic rat models of retinal degeneration. The overall goal of the research was to investigate potential photoreceptor survival in mutant rhodopsin transgenic rats using RAR α, RAR β γ, and RXR retinoid agonists.
# The experimental design was straightforward. A compound was injected daily to line 3 and every two days for line 4 animals (i.p.) for a given period and animals were sacrificed at the end by CO2 overdose followed immediately by vascular perfusion of mixed aldehydes. Two litters of rats were used:
# 1. Transgenic S334ter-3 rats. Line 3 bears a rhodopsin mutation S334ter. […] Injection of a compound will be given daily from PD 6 (post-delivery day 6) to PD 20.
# 2. Transgenic S334ter-4 rats. Line 4 bears a rhodopsin mutation S334ter. Animals of this line experience a 80% loss of photoreceptors by 60 days after birth. The ONL is reduced to one row of nuclei. Injection of a compound will be given every other day from PD 25 to PD 60.
# For the line 3 animals, treatment started at PD 6 and the endpoint was PD 20. For the line 4, injection began at PD 25 and ended at PD60 when eyes were harvested. Eyes were embedded in an Epon/Araldite mixture for sectioning at 1 μm thickness along the vertical meridian. Protection of photoreceptors was be evaluated by counting the rows of nuclei in the outer nuclear layer.
# The outcome was a measure of retinal outer layer thickness, and cytology over an 8 week period. Compounds included the retinoid agonists tazarotene (RAR β γ), AGN 195183 (RAR α) and AGN 194204 (RXR). […] This is a fairly harsh model and as such the modest improvement by tazarotene is quite significant.
# [7] = Ocular disposition of tazarotene and tazarotenic acid after intravitreal and subconjunctival dosing; type: in vivo, albino rabbits
# Description: General disposition of intraocular and subconjunctivally administered tazarotene and tazarotenic acid was assessed. Briefly, albino rabbits were dosed via intraocular injection with 1.25 μg of tazarotene or tazarotenic acid. Injection was made mid-vitreous. After dosing the vitreous, retina and aqueous humor concentrations of tazarotene and tazarotenic acid were determined at 0.5, 1, 2, 4, 8, 12 and 24 hours post dosing. […] Additionally, the tazarotenic acid concentrations asymptotically approach approximately 10 ng/mL.
# Tazarotene was also dosed in the subconjunctival space. Three dosage forms were evaluated: A tazarotene aqueous suspension (1 mg), a tazarotene subconjunctival olive oil solution (1 mg), and an tazarotene poly (lactide-co-glycolide) microsphere suspension. After dosing, the vitreous, retina and aqueous humor concentrations of tazarotene and tazarotenic acid were determined at 2, 8, 24, 48, 96, 168 and 336 hours post dosing. It was observed that subconjunctival administration achieved significant levels of tazarotene and tazarotenic acid in the ocular tissues.
# Briefly, albino rabbits were dosed via intraocular injection with 1.25 μg of tazarotene or tazarotenic acid. Injection was made mid-vitreous. After dosing the vitreous, retina and aqueous humor concentrations of tazarotene and tazarotenic acid were determined at 0.5, 1, 2, 4, 8, 12 and 24 hours post dosing. […]
# [8] = Plasma concentrations after topical and oral dosing of tazarotene; type: in vivo, patients; conditions: for Cmax: human; for Cmax / TAZAROTENIC ACID Ctrough: plasma
# Description: […] For the most part tazarotene is not observed in the plasma after topical or oral administration. Facile hydrolysis by pre-systemic metabolism rapidly generates the free acid. […] It is important to note that these are plasma concentrations and the eye plasma distribution ratio is 0.02. Over 90% of all patients in the phase 3 clinical trials had concentrations of the parent compound, tazarotene, <1 ng/mL with the highest being 6 ng/mL.
# (§1) Oral delivery of 1.1 mg and 6 mg multiple doses led to 28.9 ng/mL and 227 ng/ml peak levels with a 2.56 ng/mL trough. This corresponds to a maximum possible 4 ng/mL ocular level for the highest dose. FIG. 11 depicts the tissue distribution of tazarotenic acid. The eyes show a 2% tissue/plasma ration in the rat. It should be noted that tazarotenic acid is 99% protein bound and distribution is limited to unbound drug.
# [9] = Protein binding of tazarotenic acid; type: in vitro ADME
# [10] = Tissue-to-plasma distribution after daily topical 14C-tazarotene; type: in vivo; conditions: rat
# Description: FIG. 11 is a graph illustrating tissue-to-plasma concentration ratios of after twenty-one days of daily topical application of 14C-tazarotene to the skin of rats.
# as §1
# [11] = Five to ten μg in a silicone oil tamponade
compound,measurement,setting,value
"CC1=C(/C=C/C(C)=C/C=C/C(C)=C/C(=O)O)C(C)(C)CCC1 [RA, All trans-retinoic acid]",IC50,[1]; first value,0.01 nM
same,IC50,[1]; second value,17 nM
same,traction retinal detachment in animal model of PVR,[2]; [11],effectively prevent traction retinal detachment
same,traction retinal detachment in animal model of PVR,[2]; Ten and 15 μg in 1-% hyaluronic acid and BSS,reduced traction retinal detachment
same,ocular toxicity by histopathology and ophthalmoscopic examination,[3]; five to ten μg in silicone oil,no ocular toxicity
same,concentration well tolerated with no ERG changes,[3]; in vivo,up to 15 μg/mL
"CC1=C(/C=C/C(C)=C/C=C/C(C)=C\C(=O)O)C(C)(C)CCC1 [Isotretinoin, 13-cis-retinoic acid]",eyes progressed to traction retinal detachment,[4],22%
same,traction retinal detachment in animal model of PVR,[2]; [11],effectively prevent traction retinal detachment
same,effect on PVR and retinal attachment,[5],effective at decreasing PVR and increasing the rate of retinal attachment
CC(/C=C/[C@@H]1C[C@]1(C)c1ccc2c(c1)C(C)(C)CCC2(C)C)=C\C(=O)O [AGN 194204],protection of photoreceptors (outer nuclear layer),[6],Tazarotene was the only compound to show efficacy
"CC1(C)CCSc2ccc(C#Cc3ccc(C(=O)O)cn3)cc21 [Tazarotenic Acid, 4,4-dimethyl-6-[2′-(5″-carboxy-2″-pyridyl)-ethynyl]-thiochroman]",maximal vitreous concentration of tazarotenic acid (asymptote),[7]; after intraocular injection of 1.25 μg tazarotene,approximately 10 ng/mL
same,half-life,"[7]; albino, rabbit, vitreous, other: intraocular injection, mid-vitreous, 1.25 ug, midvitreous dosing of 1.25 μg tazarotenic acid, read-out: vitreous elimination half-life (converted)",4.24 h
same,eyes progressed to traction retinal detachment,[4],12%
same,maximum possible ocular level,[8]; highest oral dose (6 mg),≤ 4 ng/mL
same,Cmax,"[8]; po, 1.1 mg/Day, Oral 1.1 mg/Day, read-out: TAZAROTENIC ACID Cmax",28.9 ng/mL
same,Cmax,"[8]; po, 3 mg/Day, Oral 3.0 mg/Day, read-out: TAZAROTENIC ACID Cmax",81.6 ng/mL
same,Cmax,"[8]; po, 6 mg/Day, Oral 6.0 mg/Day, read-out: TAZAROTENIC ACID Cmax",227 ng/mL
same,Cmax,"[8]; topical or ocular, 0.1 % gel, Topical Gel 0.1% 2% BSA, read-out: TAZAROTENIC ACID Cmax",0.241 ng/mL
same,Cmax,"[8]; topical or ocular, 0.1 % gel, Topical Gel 0.1% 7% BSA, read-out: TAZAROTENIC ACID Cmax",0.83 ng/mL
same,Cmax,"[8]; topical or ocular, 0.1 % gel, Topical Gel 0.1% 15% BSA, read-out: TAZAROTENIC ACID Cmax",4.8 ng/mL
same,Cmax,"[8]; topical or ocular, 0.1 % gel, Topical Gel 0.1% 20% BSA, read-out: TAZAROTENIC ACID Cmax",12 ng/mL
same,Cmax,"[8]; topical or ocular, 0.1 % gel, Topical Gel 0.1% Phase 3, in 90%, read-out: TAZAROTENIC ACID Cmax",< 1 ng/mL
same,Cmax,"[8]; topical or ocular, range over topical studies, read-out: Tazarotenic acid plasma concentrations (Cmax) from topical administration",0.25 to 12 ng/mL
same,TAZAROTENIC ACID Ctrough,"[8]; Oral 6.0 mg/Day, listed as TAZAROTENIC ACID",Ctrough 2.56 ng/mL
same,TAZAROTENIC ACID Ctrough,"[8]; Oral 6.0 mg/Day, listed as tazarotenic acid",2.56 ng/mL
same,protein bound,[9],99%
same,eyes tissue/plasma ratio,[10]; FIG. 11,2%
same,Kp at 21 days,"[10]; eye, topical, read-out: eye plasma distribution ratio",0.02
CC1(C)CCC(C)(C)c2c1cc(C(=O)Nc1cc(F)c(C(=O)O)c(F)c1)c(O)c2Cl [AGN 195183],protection of photoreceptors (outer nuclear layer),[6],Tazarotene was the only compound to show efficacy
